From publication PMC2932742, “Identifying Regulators for EAG1 Channels with a Novel Electrophysiology and Tryptophan Fluorescence Based Screen” (PLoS ONE, 2010)

Target: T1, EAG1 (mEAG1) (Mus musculus, UniProt Q60603)
T1 construct: gene Kcnh1
T1 sequence (Q60603 505-702): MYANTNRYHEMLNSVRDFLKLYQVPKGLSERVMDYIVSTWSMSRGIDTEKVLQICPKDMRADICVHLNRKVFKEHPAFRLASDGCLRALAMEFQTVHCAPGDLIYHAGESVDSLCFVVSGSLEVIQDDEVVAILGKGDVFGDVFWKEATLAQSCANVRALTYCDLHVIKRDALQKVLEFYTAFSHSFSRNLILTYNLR
Assay: tryptophan fluorescence titration of purified C-terminal region; gating effect also seen in inside-out patches
Format: binding

Question: For O=c1c(O)c(-c2cc(O)c(O)c(O)c2)oc2cc(O)cc(O)c12 [myricetin], which Kd is on record?
Answer: The Kd was over 100 µM.
